# Assay results reported in US8232452B2, “Methods, means and compositions for enhancing agrobacterium-mediated plant cell transformation efficiency” (priority 2005, dated 2012).
# Like-named read-outs stand apart in the source and are kept apart here.
# Experiments:
# Agrobacterium = assay type: in vivo
# [1] = tested on: SIPK (a MAP Kinase from N. benthamiana); assay type: cell-based; conditions: induced with PtabF
# N. benthamiana [2] = assay type: cell-based; conditions: leaf tissue transiently expressing the effector, t=600 s
# N. benthamiana [3] = assay type: in vivo
# Arabidopsis [4] = assay: Oxidative burst in Arabidopsis expressing AvrPto / AvrPtoB; assay type: cell-based; conditions: Arabidopsis expressing the effector
# Source text: FIG. 13. […] Western Blot confirms the expression of the protein. […] The excel graph is a quantitative readout of the same experiment.
# N. benthamiana [5] = assay type: cell-based; conditions: induced with flagellin or INF1
# N. benthamiana [6] = assay: Measurement of calcium influx (aequorin) in N. benthamiana; conditions: N. benthamiana expressing the effector
# Protocol: An intracellular increase of calcium was measured by Agrobacterium-mediated transient expression of 35S:aequorin [3]. Leaf discs (2*0.38 cm^2/well) were floated on H2O containing 2.5 μM coelentherazine overnight in the dark and at room temperature, and luminescence was measured after elicitation withl0 μg/ml PtabF using the Photek camera system.
# Agrobacterium (C58C1) = assay: Bacterial growth curves of A. tumefaciens C58C1 in N. benthamiana
# tomato = assay: Nonhost HR assay in tomato; assay type: in vivo
# Protocol: For elicitation of the HR, purified flagellin or INF1 were infiltrated (at 100 μg/ml) in the first fully expanded leaf of three to four week-old plants. A. tumefaciens mediated transient expression was performed as described previously. The tissue was usually used for further experimentation 2 dpi.
# rice = assay: Flagellin HR in rice; assay type: in vivo
# Arabidopsis [7] = assay: Flagellin HR in Arabidopsis; assay type: in vivo
# receptor sites for EF-Tu = target: T1, receptor sites for EF-Tu (Arabidopsis thaliana, UniProt C0LGT6); assay: Number of receptor sites for EF-Tu (elf-^125I binding) after pretreatment with flg22
# T1 construct: from tissue; host or cells: crude extracts of Arabidopsis seedlings
# T1 sequence (C0LGT6 25-1031): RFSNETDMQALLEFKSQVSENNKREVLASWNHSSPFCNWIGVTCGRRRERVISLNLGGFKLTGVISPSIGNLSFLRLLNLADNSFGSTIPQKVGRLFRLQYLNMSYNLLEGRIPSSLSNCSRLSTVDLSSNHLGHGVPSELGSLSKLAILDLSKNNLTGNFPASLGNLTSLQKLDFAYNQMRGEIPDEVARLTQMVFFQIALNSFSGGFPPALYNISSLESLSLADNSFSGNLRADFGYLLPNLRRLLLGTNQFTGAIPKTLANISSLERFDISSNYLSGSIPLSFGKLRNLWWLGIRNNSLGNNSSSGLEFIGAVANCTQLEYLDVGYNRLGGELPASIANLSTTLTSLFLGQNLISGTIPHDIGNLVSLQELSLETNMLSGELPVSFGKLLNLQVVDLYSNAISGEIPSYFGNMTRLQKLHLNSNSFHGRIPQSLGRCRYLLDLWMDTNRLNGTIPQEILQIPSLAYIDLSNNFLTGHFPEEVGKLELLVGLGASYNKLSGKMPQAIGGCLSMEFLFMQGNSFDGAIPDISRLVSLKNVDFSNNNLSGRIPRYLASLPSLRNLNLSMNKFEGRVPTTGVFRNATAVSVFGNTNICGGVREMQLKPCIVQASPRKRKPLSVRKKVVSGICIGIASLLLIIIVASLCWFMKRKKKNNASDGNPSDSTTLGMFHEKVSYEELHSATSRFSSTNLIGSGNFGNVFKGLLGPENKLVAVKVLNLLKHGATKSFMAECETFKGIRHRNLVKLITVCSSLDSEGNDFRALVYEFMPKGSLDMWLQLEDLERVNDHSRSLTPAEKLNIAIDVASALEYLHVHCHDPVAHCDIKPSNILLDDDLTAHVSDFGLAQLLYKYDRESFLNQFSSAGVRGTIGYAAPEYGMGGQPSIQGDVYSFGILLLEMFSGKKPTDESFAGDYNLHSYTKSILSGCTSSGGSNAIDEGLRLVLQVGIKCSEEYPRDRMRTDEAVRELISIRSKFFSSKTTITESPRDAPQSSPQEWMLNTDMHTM
# Arabidopsis seedlings = assay: Seedling growth inhibition assay; assay type: in vivo; conditions: line SALK—044334 (efr-1), 1 μM
# Protocol: Fresh weight of seedlings was determined 7 days later. Values represent average and standard variation of n=6.
# Pictures were taken after one week of treatment.
# (§1) EF-Tu perception shares many features with perception of flagellin. Both PAMPs are peptides which activate their receptors in a two step process according to the concept of address-message (Bauer et al., 2001; Kunze et al., 2004). […] Thus, we speculated that perception of EF-Tu might involve a RLK gene related to FLS2 and that belongs to the group of RLKs induced after stimulation with both PAMPs. Starting with close relatives of FLS2 we established a collection of homozygous T-DNA-tagged mutants for induced LRR-RLKs from lines provided by the Salk collection (Alonso et al., 2003). These mutant lines were then tested for response to EF-Tu using the seedling growth inhibition assay that has been successfully employed previously to screen for flg22-insensitive mutants (Gómez-Gómez and Boller, 2000). […] Apart from lack of responses to EF-Tu-derived elicitors, this line was indistinguishable from wild-type plants and no other phenotype became apparent over several generations.
# Arabidopsis cells = assay: Extracellular (medium) alkalinization in cultured cells; assay type: cell-based; conditions: 100 nM peptide, saturating dose
# Arabidopsis leaf tissues = assay: Oxidative burst in leaf tissues (luminol based assay); assay type: cell-based; conditions: line SALK—044334 (efr-1) leaf tissue, 1 μM
# Source text: (B) Oxidative burst in leaf tissues of wild-type Col-0, efr-1 and fls2 plants. […] Results are averages±standard errors (n=8).
# as §1
# A. tumefaciens = assay: Agrobacterium-mediated transient GUS expression in Arabidopsis leaves with co-injected peptides; conditions: co-injection of 1 μM peptide with A. tumefaciens, 4 dpi
# Protocol: (B) Quantitative GUS assays with extracts from leaves of wild type and efr-1 mutants 4 days after infiltration with 2*10^8 A. tumefaciens carrying pBIN19-35S::GUS. […] Bars and error bars represent mean and standard error of n=6 independent extractions from two leaves each.
# Agrobacterium-mediated expression in Arabidopsis was performed as described previously (Joh et al., 2005). Briefly, Agrobacterium GV3101 strain carrying the GUS-intron transgene in pBIN19g was grown overnight in L medium at 28° C. This culture was diluted 10-fold in fresh L medium and incubated for further 5 h. Bacteria were then collected by centrifugation, resuspended in water at an OD600 of 0.4, and injected into leaves of 4-5 week-old Arabidopsis plants.
# To test if EF-Tu perception plays a role in restricting A. tumefaciens infection, wild-type (Col-0) and efr-1 leaves were injected with the hyper-virulent non-tumorigenic strain of A. tumefaciens (GV3101) harbouring a binary plasmid containing a β-glucuronidase (GUS)-intron construct that allows expression in plants but not in bacteria.
compound,measurement,setting,value
"O=CC[C@@H](O)[C@H](O)[C@H](O)CO [2-DDG, 2-deoxy-D-Glucose]",level of GUS expression,"Agrobacterium; 250 μM, sprayed one day prior to Agrobacterium infiltration",seemed to improved the level of GUS expression
same,level of GUS expression,"Agrobacterium; spray pre-treatment combined with co-infiltration, xanthan gum 150 μg/ml, 2-DDG 250 μM (FIG. 17)",significantly enhanced
"AvrPtoB: P. syringae type-III effector protein expressed in the plant tissue, unrelated to AvrPto",effect on MAPK activation,[1],Suppression
same,effect on PtabF-induced ROS,N. benthamiana [2],Suppression of PtabF-induced ROS
same,effect on nonhost HR induced by flagellin,N. benthamiana [3],suppress this nonhost HR
same,effect on oxidative burst,Arabidopsis [4],exact same result
same,effect on callose deposition,N. benthamiana [5],Suppression
same,effect on calcium burst,N. benthamiana [6],suppress calcium burst
same,growth of Agrobacterium (C58C1),Agrobacterium (C58C1),enhance the growth of Agrobacterium
same,effect on nonhost HR induced by flagellin,tomato; tomato,suppress this nonhost HR
Flagellin,nonhost HR,N. benthamiana [3]; flagellin from Pseudomonas syringae,induces a nonhost HR
same,HR,rice,induce the HR
same,HR,Arabidopsis [7],No flagellin HR
same,nonhost HR,"tomato; tomato (76R), flagellin from Pseudomonas syringae",induces a nonhost HR
flg22: the flagellin peptide recognized by most plants (QRLTTGYRINSAKDDAAGLQIS),increase in specific receptor sites for the other PAMP (EF-Tu),"receptor sites for EF-Tu; cultured cells, data not shown",> 2 fold
same,number of specific binding sites for EF-Tu relative to controls,"receptor sites for EF-Tu; seedlings, 1 μM flg22, within 4 to 6 h of treatment",> 2 fold
same,seedling growth,Arabidopsis seedlings,as sensitive to treatment with flg22 as wild-type seedlings
same,time lag of alkalinization,Arabidopsis cells,only few seconds
same,oxidative burst,Arabidopsis leaf tissues,full response
same,transformation (GUS activity),A. tumefaciens; efr-1 leaves,strongly reduced transformation
same,GUS expression,A. tumefaciens; wild type leaves,nearly abolished GUS expression
